Data set [1] in a line: Molar enthalpy of transition or fusion. As to conditions: DSC.
Data set [2] can be described thus: molar enthalpy of vaporization or sublimation. As to conditions: 298 K; Liquid; DSC.

± gives the expanded uncertainty stated by the source.

Regarding `CCCCCCCCCCCCCCCCCCCCCC(=O)O` [docosanoic acid], for the setting “Crystal 2, DTA”, the Triple point temperature came to 340.9 ± 0.5 K. Also, where the note is “Crystal, DSC/DTA”, the Normal melting temperature was 79.2 ± 0.4 °C. Besides, the entries for the “Molar enthalpy of transition or fusion” value in data set [1] (Crystal 2) and in data set [1] (Crystal) were 0.853 ± 0.148 kcal/mol and 15.8 ± 0.335 kcal/mol, respectively. In addition, the molar enthalpy in data set [2] turned out to be 37 ± 3.59 kcal/mol.

Values taken from the NIST ThermoML archive (doi:10.1021/je300902c).
